The numbers were not newly measured in patent US20020052320A1, “Sustained peptide-release formulation” (Peptech Limited, priority 1996, published 2002), which cites them from elsewhere.

SMILES strings stand for the structures.

Data set [1] has as its system advanced prostatic cancer. The conditions noted are these: monthly subcutaneous injections.
Data set [2] has as its system prostate cancer in rats. The settings on record: controlled dose over 30 days vs equivalent or double doses of free peptide.

As to `CC(C)C[C@H](NC(=O)[C@@H](COC(C)(C)C)NC(=O)[C@H](Cc1ccc(O)cc1)NC(=O)[C@H](CO)NC(=O)[C@H](Cc1c[nH]c2ccccc12)NC(=O)[C@H](Cc1cnc[nH]1)NC(=O)[C@@H]1CCC(=O)N1)C(=O)N[C@@H](CCCNC(=N)N)C(=O)N1CCC[C@H]1C(=O)NNC(N)=O` [goserelin, 3-[5-oxo-L-prolyl-L-tryptophyl-L-seryl-L-tyrosyl-(3-O-tert-butyl)-D-seryl-L-1eucyl-L-arginyl-L-prolyl]cabazamide acetate], in data set [1], the “efficacy compared with orchiectomy” value was “as effective as orchiectomy” and the tolerability result is given as “well tolerated”.

For the compound `CC(C)C[C@H](NC(=O)[C@@H](Cc1c[nH]c2ccccc12)NC(=O)[C@H](Cc1ccc(O)cc1)NC(=O)[C@H](CO)NC(=O)[C@H](Cc1c[nH]c2ccccc12)NC(=O)[C@H](Cc1c[nH]cn1)NC(=O)[C@@H]1CCC(=O)N1)C(=O)N[C@@H](CCCNC(=N)N)C(=O)N1CCC[C@H]1C(=O)NCC(N)=O` [triptorelin, 5-oxo-L-prolyl-L-histidyl-L-tryptophyl-L-seryl-L-tyrosyl-D-tryptophyl-L-leucyl-L-arginyl-L-prolylglycinamide], in data set [2], the “suppression of prostate tumour weight, microencapsulated form vs daily subcutaneous free peptide” value was “more effective” and the “suppression of serum testosterone levels, microencapsulated form vs daily subcutaneous free peptide” value is “more effective”.
